Values of other authors as cited in patent publication US6090854A, “Aryloxyanilides and related compounds” (Bristol-Meyers Company, priority 1999, dated 2000).

How the values were obtained:
[1] = tested on: circadian rhythms; settings: exogenous melatonin, rats; Cassone et al. 1986

oral bioavailability: often low and variable
SMILES: COc1ccc2[nH]cc(CCNC(C)=O)c2c1 [melatonin, N-acetyl-5-methoxytryptamine]
synchronization of circadian rhythms [1]: found to synchronize circadian rhythms in rats
